Assays:
Assay in all cases: cells
Parameters in all cases: CellTiter-Glo 2.0 luminescence proliferation/viability assay, single agents, human tumour cell line panel
SW1116 = conditions: Homo sapiens, SW 1116, 96 h; single agent; read-out: IC50 SMACm
How it was run: (§1)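 Human tumour cell lines were seeded into assay plates and held at 37°C with 5% CO2 for twenty-four hours, then exposed in triplicate to rising concentrations of the SMAC mimetic, from 4.5 nM to 10 μM, with DMSO as control. After 96 h, viability was read as CellTiter-Glo2.0 luminescence to derive single-agent IC50 values.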

A549 = conditions: Homo sapiens, A549, 96 h; single agent; read-out: IC50 SMACm
How it was run: as §1

LS-174T = conditions: Homo sapiens, LS174T, 96 h; single agent; read-out: IC50 SMACm
How it was run: as §1

LoVo = conditions: Homo sapiens, LoVo, 96 h; single agent; read-out: IC50 SMACm
How it was run: as §1

KM20 = conditions: 96 h; single agent; read-out: IC50 SMACm
How it was run: as §1

C75 = conditions: 96 h; single agent; read-out: IC50 SMACm
How it was run: as §1

SW620 = conditions: Homo sapiens, SW-620, 96 h; single agent; read-out: IC50 SMACm
How it was run: as §1

CAR1 = conditions: Homo sapiens, CaR-1, 96 h; single agent; read-out: IC50 SMACm
How it was run: as §1

AsPC-1 = conditions: Homo sapiens, ASPC1, 96 h; single agent; read-out: IC50 SMACm
How it was run: as §1

HCC78 = conditions: Homo sapiens, HCC78, 96 h; single agent; read-out: IC50 SMACm
How it was run: as §1

KM12SM = conditions: 96 h; single agent; read-out: IC50 SMACm
How it was run: as §1

COLO94H = conditions: 96 h; single agent; read-out: IC50 SMACm
How it was run: as §1

WiDr = conditions: Homo sapiens, WiDr, 96 h; single agent; read-out: IC50 SMACm
How it was run: as §1

HCC1195 = conditions: 96 h; single agent; read-out: IC50 SMACm
How it was run: as §1

SNU1047 = conditions: 96 h; single agent; read-out: IC50 SMACm
How it was run: as §1

- IC50 (SW1116): 4.51 µM
- IC50 (A549): > 10 µM
- IC50 (LoVo): 4.76 µM
- IC50 (SW620): 4.46 µM
- IC50 (AsPC-1): > 10 µM
- IC50 (HCC78): 5.11 µM
- IC50 (COLO94H): 4.69 µM
- IC50 (HCC1195): 4.59 µM
- IC50 (SNU1047): 2.79 µM
Compound: CN[C@@H](C)C(=O)Nc1ccc(-c2c(-c3cccnc3OC)nc3cc(C)ccn23)c(C#Cc2ccc3c(C)nccc3c2)n1 [SMACm, BI 891065]
- IC50 (LS-174T): 2.41 µM
- IC50 (KM20): 5.04 µM
- IC50 (C75): 2.8 µM
- IC50 (CAR1): 2.1 µM
- IC50 (KM12SM): 4.31 µM
- IC50 (WiDr): 4.25 µM
